Measured values taken from patent US8481527B2, “Benzamide derivatives as bradykinin antagonists” (Richter Gedeon Nyrt., priority 2006, dated 2013).
pIC50, pKi: −log10 of the molar value.

What was measured:
[1] = target: T1, human recombinant bradykinin B1 receptor (Homo sapiens, UniProt P46663); assay: Human recombinant bradykinin B1 receptor binding; settings: CHO cell membranes, [3H]-[Des-Arg10] Kallidin radioligand; read-out: B1 binding
T1 construct: purchased Euroscreen ES-091; host or cells: CHO cells
T1 sequence (P46663 1-353): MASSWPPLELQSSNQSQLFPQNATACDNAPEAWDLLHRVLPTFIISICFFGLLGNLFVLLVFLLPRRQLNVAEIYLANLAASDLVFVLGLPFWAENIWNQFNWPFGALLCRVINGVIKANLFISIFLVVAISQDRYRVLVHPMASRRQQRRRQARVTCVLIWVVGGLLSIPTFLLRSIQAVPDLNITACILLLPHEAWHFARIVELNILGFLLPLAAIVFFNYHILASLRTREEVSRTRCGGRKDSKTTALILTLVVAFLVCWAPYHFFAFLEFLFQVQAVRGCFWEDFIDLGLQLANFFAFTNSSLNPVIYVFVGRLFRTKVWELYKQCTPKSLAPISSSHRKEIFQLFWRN
Procedure: Receptor Binding Assays 1. Human Recombinant Bradykinin B1 Receptor Binding
Binding assays were carried out on human recombinant bradykinin) receptors (expressed in CHO cells) according to the Euroscreen Technical Data Sheet (Cat.No.:ES-091). 20 μg protein/tube was incubated with [3,4-prolyl-3,4-^3H(N)]-[Des-Arg^10] Kallidin as radioligand. Non specific binding was determined in the presence of 10 μM Lys-des-Arg^9-Bradykinin. The final incubation volume was 250 μl. Samples were incubated for 15 min. at 25° C. then were rapidly vacuum filtered through GF/B filters presoaked for at least 1 h in 0.5% PEI. Radioactivity was determined by liquid scintillation spectroscopy.

[2] = target: T2, recombinant human B1 receptors (Homo sapiens, UniProt P46663); assay: Functional assay: antagonist potency by cytosolic calcium measurement in CHO-B1 cells (agonist LysDABK); format: cell-based; settings: CHO-B1 cells, LysDABK at EC80, fluo-4 [Ca2+]i; read-out: B1 func.
T2 construct: host or cells: CHO (CHO-B1)
T2 sequence (P46663 1-353): T1 sequence (P46663 1-353)
Procedure: Assessment of Antagonist Potency at B1 and B2 Receptors In Vitro by Measurement of Cytosolic Calcium Ion Concentration with a Plate Reader Fluorimeter in Cells Expressing Recombinant Human B1 or B2 Receptors
Chinese hamster ovary (CHO) cells stably expressing recombinant human B1 (CHO-B1, Euroscreen) or B2 (CHO-B2, Perkin-Elmer) receptors were cultured in Dulbecco's Modified Eagle's Medium (DMEM) containing 10% Fetal Calf Serum (FCS), 100 U/ml penicillin, 0.1 mg/ml streptomycin, 0.25 μg/ml amphotericin B, 1% Minimum Essential Medium Eagle (MEM), non essential amino acid solution, 600 μg/ml G418, 1% pyruvate (for the B2 cell line). Cells were kept at 37° C. in a humidified incubator in an atmosphere of 5% CO2/95% air and were passaged 1:4 three times a week. Cells were plated at 1.5-2.5×10^4 cell/well on standard 96-well microplates, measurements of cytosolic calcium ion concentration ([Ca^2+]i) were carried out 1-2 days after cell plating.
Measurements of [Ca^2+]i were carried out on CHO-B1 and CHO-B2 cells stably expressing human B1 and B2 receptors, respectively. Cells were grown in standard 96-well microplates and before the measurement were loaded with a fluorescent Ca^2+-sensitive dye, fluo-4/AM (2 μM): after removing the culture medium the dye was added to the cells (dissolved in assay buffer: 145 mM NaCl, 5 mM KCl, 2 mM MgCl2, 2 mM CaCl2, 10 mM HEPES, 20 mM D-glucose, 2 mM probenecid, 100 μl/well) and cells were incubated at 37° C. in a humidified incubator in an atmosphere of 5% CO2/95% air for 40-120 min. To stop dye loading cells were washed twice with assay buffer. After washing, various concentrations of the test compounds (diluted in extracellular medium from a DMSO stock solution, final DMSO concentration was <0.1%) or buffer were added to each well depending on the experimental setup. After incubation at 37° C. for 20-25 min. baseline and agonist-evoked changes of [Ca^2+]i were measured column by column with a plate reader fluorimeter (Fluoroskan Ascent, Labsystems). Excitation and detection of emission was carried out from the bottom of the plate. Filters used for Fluo-4: excitation filter—485 nm, emission filter—538 nm. The whole measurement process was performed at 37° C. and was controlled by custom software. Inhibitory potency of the test compounds was assessed by measuring the reduction in the agonist-evoked [Ca^2+]i-elevation in the presence of different concentrations of the compounds. The agonists were LysDABK for CHO-B1, and bradykinin for CHO-B2 cells. Agonists were applied at an EC80 concentration, the EC80-values were derived from daily determined dose-response curves. Fluorescence data were expressed as ΔF/F (fluorescence change normalized to baseline). All treatments on a single plate were measured in multiple wells. Data from all wells with the same treatment were averaged and the average values were used for analysis. Inhibitory potency of a compound at a single concentration point was expressed as percent inhibition of the control agonist response. Sigmoidal concentration-inhibition curves were fitted to the data (derived from at least three independent experiments) and IC50-values were determined as the concentration that produces half of the maximal inhibition caused by the compound.

| pKi [1] | pIC50 [2] | SMILES |
| --- | --- | --- |
| > 7.70 | > 7.70 | O=C(NCC(=O)N1CCN(CCN2CCCC2)CC1)c1ccc(S(=O)(=O)Nc2ccccc2Oc2ccc(Cl)cc2Cl)cc1 [Example 1.1, 4-[2-(2,4-Dichloro-phenoxy)-phenylsulfamoyl]-N-{2-oxo-2-[4-(2-pyrrolidin-1-yl-ethyl)-piperazin-1-yl]-ethyl}-benzamide] |
| > 7.70 | > 7.70 | CN(C)CCN1CCN(C(=O)CNC(=O)c2ccc(S(=O)(=O)Nc3ccccc3Oc3ccc(Cl)cc3Cl)cc2)CC1 [Example 1.2, 4-[2-(2,4-Dichloro-phenoxy)-phenylsulfamoyl]-N-{2-[4-(2-dimethylamino-ethyl)-piperazin-1-yl]-2-oxo-ethyl}-benzamide] |
| > 7.70 | > 7.70 | CCN(CC)CCN1CCN(C(=O)CNC(=O)c2ccc(S(=O)(=O)Nc3ccccc3Oc3ccc(Cl)cc3Cl)cc2)CC1 [Example 1.3, 4-[2-(2,4-Dichloro-phenoxy)-phenylsulfamoyl]-N-{2-[4-(2-diethylamino-ethyl)-piperazin-1-yl]-2-oxo-ethyl}-benzamide] |
| > 7.70 | > 7.70 | O=C(NCC(=O)N1CCN(CCCN2CCCC2)CC1)c1ccc(S(=O)(=O)Nc2ccccc2Oc2ccc(Cl)cc2Cl)cc1 [Example 1.4, 4-[2-(2,4-Dichloro-phenoxy)-phenylsulfamoyl]-N-{2-oxo-2-[4-(3-pyrrolidin-1-yl-propyl)-piperazin-1-yl]-ethyl}-benzamide] |
| > 7.70 | > 7.70 | CN1CCCC(CN2CCN(C(=O)CNC(=O)c3ccc(S(=O)(=O)Nc4ccccc4Oc4ccc(Cl)cc4Cl)cc3)CC2)C1 (centres unmarked) [Example 1.5, 4-[2-(2,4-Dichloro-phenoxy)-phenylsulfamoyl]-N-{2-[4-(1-methyl-piperidin-3-ylmethyl)-piperazin-1-yl]-2-oxo-ethyl}-benzamide] |
| > 7.70 | > 7.70 | O=C(NCC(=O)N1CCC(CCN2CCCC2)CC1)c1ccc(S(=O)(=O)Nc2ccccc2Oc2ccc(Cl)cc2Cl)cc1 [Example 1.6, 4-[2-(2,4-Dichloro-phenoxy)-phenylsulfamoyl]-N-{2-oxo-2-[4-(2-pyrrolidin-1-yl-ethyl)-piperidin-1-yl]-ethyl}-benzamide] |
| > 7.70 | > 7.70 | O=C(NCC(=O)N1CCN(c2ncccn2)CC1)c1ccc(S(=O)(=O)Nc2ccccc2Oc2ccc(Cl)cc2Cl)cc1 [Example 1.7, 4-[2-(2,4-Dichloro-phenoxy)-phenylsulfamoyl]-N-[2-oxo-2-(4-pyrimidin-2-yl-piperazin-1-yl)-ethyl]-benzamide] |
| > 7.70 | > 7.70 | O=C(NCC(=O)N1CCCN(CCCN2CCOCC2)CC1)c1ccc(S(=O)(=O)Nc2ccccc2Oc2ccc(Cl)cc2Cl)cc1 [Example 1.8, 4-[2-(2,4-Dichloro-phenoxy)-phenylsulfamoyl]-N-{2-[4-(3-morpholin-4-yl-propyl)-[1,4]diazepan-1-yl]-2-oxo-ethyl}-benzamide] |
| > 7.70 | > 7.70 | O=C(NCC(=O)N1CCN(CCCN2CCCCC2)CC1)c1ccc(S(=O)(=O)Nc2ccccc2Oc2ccc(Cl)cc2Cl)cc1 [Example 1.9, 4-[2-(2,4-Dichloro-phenoxy)-phenylsulfamoyl]-N-{2-oxo-2-[4-(3-piperidin-1-yl-propyl)-piperazin-1-yl]-ethyl}-benzamide] |
| > 7.70 | > 7.70 | CN(C)CCCN1CCN(C(=O)CNC(=O)c2ccc(S(=O)(=O)Nc3ccccc3Oc3ccc(Cl)cc3Cl)cc2)CC1 [Example 1.10, 4-[2-(2,4-Dichloro-phenoxy)-phenylsulfamoyl]-N-{2-[4-(3-dimethylamino-propyl)-piperazin-1-yl]-2-oxo-ethyl}-benzamide] |
| > 7.70 | > 7.70 | O=C(NCC(=O)N1CCCN(CCCN2CCCC2)CC1)c1ccc(S(=O)(=O)Nc2ccccc2Oc2ccc(Cl)cc2Cl)cc1 [Example 1.11, 4-[2-(2,4-Dichloro-phenoxy)-phenylsulfamoyl]-N-{2-oxo-2-[4-(3-pyrrolidin-1-yl-propyl)-[1,4]diazepan-1-yl]-ethyl}-benzamide] |
| > 7.70 | > 7.70 | O=C(NCC(=O)N1CCN(CCCN2CCOCC2)CC1)c1ccc(S(=O)(=O)Nc2ccccc2Oc2ccc(Cl)cc2Cl)cc1 [Example 1.12, 4-[2-(2,4-Dichloro-phenoxy)-phenylsulfamoyl]-N-{2-[4-(3-morpholin-4-yl-propyl)-piperazin-1-yl]-2-oxo-ethyl}-benzamide] |
| > 7.70 | > 7.70 | O=C(NCC(=O)N1CCN(CCN2CCCCC2)CC1)c1ccc(S(=O)(=O)Nc2ccccc2Oc2ccc(Cl)cc2Cl)cc1 [Example 1.13, 4-[2-(2,4-Dichloro-phenoxy)-phenylsulfamoyl]-N-{2-oxo-2-[4-(2-piperidin-1-yl-ethyl)-piperazin-1-yl]-ethyl}-benzamide] |
| > 7.70 | > 7.70 | O=C(NCC(=O)N1CCC(N2CCCC2)CC1)c1ccc(S(=O)(=O)Nc2ccccc2Oc2ccc(Cl)cc2Cl)cc1 [Example 1.21, 4-[2-(2,4-Dichloro-phenoxy)-phenylsulfamoyl]-N-[2-oxo-2-(4-pyrrolidin-1-yl-piperidin-1-yl)-ethyl]-benzamide] |
| > 7.70 | > 7.70 | O=C(NCC(=O)N1CCC(O)CC1)c1ccc(S(=O)(=O)Nc2ccccc2Oc2ccc(Cl)cc2Cl)cc1 [Example 1.22, 4-[2-(2,4-Dichloro-phenoxy)-phenylsulfamoyl]-N-[2-(4-hydroxy-piperidin-1-yl)-2-oxo-ethyl]-benzamide] |
| > 7.70 | > 7.70 | O=C(NCC(=O)N1CCN(CCN2CCCC2)CC1)c1ccc(S(=O)(=O)Nc2ccccc2Oc2ccccc2)cc1 [Example 2.2, N-{2-Oxo-2-[4-(2-pyrrolidin-1-yl-ethyl)-piperazin-1-yl]-ethyl}-4-(2-phenoxy-phenylsulfamoyl)-benzamide] |
| > 7.70 | > 7.70 | CN(C)CCN1CCN(C(=O)CNC(=O)c2ccc(S(=O)(=O)Nc3ccccc3Oc3ccccc3)cc2)CC1 [Example 2.3, N-{2-[4-(2-Dimethylamino-ethyl)-piperazin-1-yl]-2-oxo-ethyl}-4-(2-phenoxy-phenylsulfamoyl)-benzamide] |
| > 7.70 | > 7.70 | CCN(CC)CCN1CCN(C(=O)CNC(=O)c2ccc(S(=O)(=O)Nc3ccccc3Oc3ccccc3)cc2)CC1 [Example 2.4, N-{2-[4-(2-Diethylamino-ethyl)-piperazin-1-yl]-2-oxo-ethyl}-4-(2-phenoxy-phenylsulfamoyl)-benzamide] |
| > 7.70 | > 7.70 | O=C(NCC(=O)N1CCN(CCCN2CCCC2)CC1)c1ccc(S(=O)(=O)Nc2ccccc2Oc2ccccc2)cc1 [Example 2.5, N-{2-Oxo-2-[4-(3-pyrrolidin-1-yl-propyl)-piperazin-1-yl]-ethyl}-4-(2-phenoxy-phenylsulfamoyl)-benzamide] |
